Eight molecules from PubChem BioAssay (NCI) can be followed below.

Several values for one entry are separate records, joined by “and”; a condition that tells them apart may be missing. Equal values may be shown once.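 All cell lines were grown in 96-well plates and treated with compound for 48 hours. At the GI50, growth is halved. The concentration for full growth arrest is given as TGI.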 Some results are limits rather than exact numbers.

Holding throughout (test): growth of human tumour cells (NCI), 48 h
For test [1], the system named is OVCAR-8 ovarian.
The test system of test [2] is UO-31 renal.
For test [3], the system named is HCC-2998 colon.
Test [4] concerns M14 melanoma.
In test [5] the test system is SNB-19 CNS.
Test [6] relates to MALME-3M melanoma.
Test [7] relates to DU-145 prostate.
Test [8] relates to TK-10 renal.
For test [9], the system named is NCI-H226 lung.
In test [10] the test system is SW-620 colon.

In the case of `COc1ccc2nc3cc(Cl)ccc3c(Nc3ccc(O)c(CN4CCCC4)c3)c2c1`, the GI50 is 2.01 µM in test [1]; 1.83 µM in test [2]; 1.67 µM in test [3]; 1.89 µM in test [4]; 2.99 µM in test [5]; 2.41 µM in [6]. Also, the GI50 in test [7] was 2.16 µM; in test [8], 2.29 µM; in [9], 1.84 µM; in test [10], 1.94 µM. The TGI in test [1] came to 4.87 µM; in test [2], 3.7 µM; in test [3], 3.16 µM; in [4], 3.54 µM; in test [5], 13.9 µM; in test [6], 4.29 µM. For the same molecule, the TGI in test [7] was determined as 4.77 µM; in test [8], 4.75 µM; in test [9], 3.75 µM; in [10] it was 6.19 µM.
Consider `NC(=O)c1c(NC(=O)c2cccc(C(F)(F)F)c2)sc2c1CCC(=O)C2`, for which the GI50 is 0.519 µM in test [1]; 0.291 µM in test [2]; 2.59 µM in test [3]; 0.437 µM in test [4]; 0.432 µM in test [5]; 0.869 µM in test [6]. In addition, the GI50 in test [7] was 3.73 µM; in test [8] it was 0.753 µM; in test [9] it was 5.37 µM; in test [10], 0.234 µM. Moreover, the TGI in test [1] is more than 100 µM; in test [2], 1.19 µM; in [3] it was more than 76.9 µM; in test [4], 11.6 µM; in [5], more than 100 µM; in test [6] it was 3.73 µM. In addition, the TGI in test [7] was more than 100 µM; in [8], 13.3 µM; in test [9] it was more than 100 µM; in test [10], 1.62 µM.
Consider `COC(=O)C1=C(C(=O)OC)C(C(=O)OC)C(C(=O)OC)C(C(=O)OC)(C(=O)OC)C(C(=O)OC)=C1C(=O)OC` (configuration not stated), for which the TGI amounted to 25.2 µM in test [1]; 30.7 µM in test [2]; 31 µM in test [3]; 29.8 µM in [4]; 33 µM in test [5]; 15.7 µM in test [6]. Also, the TGI in test [7] turned out to be 32.1 µM; in test [8], 29 µM; in test [9], 25.1 µM; in test [10], 16.8 µM.
Regarding `CC(=O)c1c(Nc2ccc(F)c(F)c2F)[nH]c2c(F)cc(F)cc2c1=O`, the GI50 in [1] is 0.365 µM; in test [2], 0.123 µM; in [3], 0.378 µM; in test [4] it was 0.352 µM; in test [5], 0.354 µM; in [6] it was 0.207 µM. The GI50 in test [7] is 0.403 µM; in [8] it was 0.503 µM; in test [9], 0.297 µM; in test [10], 0.346 µM. Also, the TGI in test [1] was more than 100 µM; in test [2], 0.742 µM; in test [3], 13.6 µM; in test [4] it was 4.06 µM; in [5], more than 70.2 µM; in [6], 0.643 µM. For the same molecule, the TGI in test [7] is more than 100 µM; in test [8], 47.8 µM; in test [9], 1.87 µM; in test [10], 18.7 µM.
Take `C#CCn1cc(C=C2C(=O)NC(=S)NC2=O)c2cc(Cl)ccc21`: the GI50 in [1] is 2.72 µM; in test [2], 1.7 µM; in [3], 1.75 µM; in test [4], 2 µM; in [5] it was 1.72 µM; in test [6], 1.98 µM. Besides, the GI50 in test [7] was 1.72 µM; in [8], 2.36 µM; in test [9] it was 2.82 µM; in test [10], 1.79 µM. The TGI in test [1] came out at 7.44 µM; in test [2], 3.44 µM; in test [3] it was 3.39 µM; in test [4], 4.76 µM; in test [5] it was 3.16 µM; in test [6], 4.95 µM. For the same molecule, the TGI in [7] was determined as 3.22 µM; in test [8] it was 5.95 µM; in test [9] it was 8.47 µM; in [10], 3.45 µM.
For the molecule `CCCC(=O)Nc1cn(COC)c(C(=O)N2C[C@H]3C[C@@]34C2=CC(=O)c2[nH]cc(C)c24)n1`, the TGI in [1] is 14.6 µM and 20.1 µM; in test [2], 28.1 µM and 73.1 µM; in test [3], 9.14 µM and 6.59 µM; in test [4] it was 50 µM and > 100 µM; in test [5], 50 µM and > 100 µM; in test [6], 9.45 µM and 26 µM. In addition, the TGI is 5 µM and 11.4 µM in test [7]; 46.2 µM in [8]; 39.4 µM in test [9]; 50 µM and > 100 µM in [10]. Besides, the GI50 was 3.47 µM in test [2]; 1.89 µM in [3]; 7.14 µM in test [4]; 10.4 µM in test [5]; 4.22 µM in test [6]; 2.56 µM in [7]. Besides, the GI50 in test [10] is 13.4 µM.
For the molecule `COc1ccc(-c2cn(-c3cc(OC)c(OC)c(OC)c3)c(=O)n2-c2ccccc2)cc1`, the GI50 in test [1] was more than 100 µM; in test [2], more than 100 µM; in [3], more than 100 µM; in test [4] it was more than 100 µM; in test [5] it was more than 100 µM; in [6], 38.5 µM. Besides, the GI50 in [7], in test [8], in [9] and in test [10] was more than 100 µM throughout. The TGI in test [1], in [2], in test [3], in test [4], in test [5] and in [6] was more than 100 µM in each case. Besides, the TGI in [7], in test [8], in test [9] and in test [10] was more than 100 µM in each case.
`O=C(Nc1nc2ccc(F)cc2s1)c1cccnc1Nc1ccc(Cl)cc1Cl`: the GI50 in test [1] was 3.43 µM; in test [2], 2.21 µM; in [3], 4.09 µM; in test [4] it was 3.18 µM; in test [5], 3.22 µM; in test [6], 2.19 µM. In addition, the GI50 in test [7] was 3.22 µM; in test [8], 3.53 µM; in test [9] it was 2.72 µM; in [10], 3.04 µM. The TGI is 22.8 µM in test [1]; more than 24.4 µM in [2]; 18.3 µM in test [3]; 14.6 µM in test [4]; 14.7 µM in test [5]; 12.1 µM in [6]. Moreover, the TGI came to 13.4 µM in test [7], 19.1 µM in [8], 19.3 µM in [9] and 15.1 µM in test [10].
